The results in this text go back to patent publication US9737545B2 (MERCK SHARP & DOHME CORP., priority 2013, dated 2017).

The assay addresses T1, wildtype HIV-1 protease (Human immunodeficiency virus type 1 group M subtype B, UniProt P04585).
T1 construct: preincubated with the HIV-1 protease (wild type) enzyme in assay buffer; made in house; host or cells: Escherichia coli
Nature of the assay: Assay for Inhibition of Microbial Expressed HIV Protease (Pepcleav). Format: biochemical. The gist of the method: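 E. coli-expressed wildtype protease (20 pM final) preincubated with inhibitor 30 min at room temperature in 50 mM sodium acetate pH 5.5, 100 mM NaCl, 0.1% BSA. Reaction with 400 μM peptide substrate ran 1 h at 30° C. Inhibition derived from LC-MS/MS (MRM) product peak area.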

A word on the IC50: it is the concentration needed to halve the response being measured. A lower IC50 goes with higher potency.

For the compound `O=C(C[C@H](c1ccccc1)c1ccc(F)cc1)Nc1cncc(F)c1CC[C@@H]1CN[C@H](c2nc3ccccc3[nH]2)CO1` [Example 71, (3R)—N-(4-{2-[(2R,5R)-5-(1H-benzimidazol-2-yl)morpholin-2-yl]ethyl}-5-fluoropyridin-3-yl)-3-(4-fluorophenyl)-3-phenylpropanamide], the IC50 worked out at 0.01 nM.

Compound `COC(=O)N[C@H](C(=O)Nc1cncc(F)c1CC[C@@H]1CN[C@H](c2nc3ccccc3[nH]2)CO1)C(c1ccc(F)cc1)c1ccc(F)cc1` [Example 72, N-(4-{2-[(2R,5R)-5-(1H-benzimidazol-2-yl)morpholin-2-yl]ethyl}-5-fluoropyridin-3-yl)-4-fluoro-β-(4-fluorophenyl)-Nα-(methoxycarbonyl)-L-phenylalaninamide] yielded an IC50 of 0.01 nM.

The compound `O=C(C[C@@H](c1ccc(F)cc1)c1ccncc1F)Nc1cccc(F)c1CC[C@@H]1CN[C@H](c2nc3ccccc3[nH]2)CO1` [Example 73, (3S)—N-(2-{2-[(2R,5R)-5-(1H-benzimidazol-2-yl)morpholin-2-yl]ethyl}-3-fluorophenyl)-3-(4-fluorophenyl)-3-(3-fluoropyridin-4-yl)propanamide] yielded a concentration for half-maximal inhibition (IC50) of 0.01 nM.

In turn, `N[C@H](C(=O)Nc1cncc(F)c1CC[C@@H]1CN[C@H](c2nc3cc(F)c(F)cc3[nH]2)CO1)C(c1ccc(F)cc1)c1ccc(F)cc1` [Example 75, N-(4-{2-[(2R,5R)-5-(5,6-difluoro-1H-benzimidazol-2-yl)morpholin-2-yl]ethyl}-5-fluoropyridin-3-yl)-4-fluoro-β-(4-fluorophenyl)-L-phenylalaninamide] registered a 50% inhibitory concentration (IC50) of 0.01 nM.

As to `COC(=O)N[C@H](C(=O)Nc1cncc(F)c1CC[C@@H]1CN[C@H](c2nc3cc(F)c(F)cc3[nH]2)CO1)C(c1ccc(F)cc1)c1ccc(F)cc1` [Example 76, N-(4-{2-[(2R,5R)-5-(5,6-difluoro-1H-benzimidazol-2-yl)morpholin-2-yl]ethyl}-5-fluoropyridin-3-yl)-4-fluoro-β-(4-fluorophenyl)-Nα-(methoxycarbonyl)-L-phenylalaninamide], the IC50 is 0.02 nM.

The compound `COC(=O)N[C@H](C(=O)Nc1ccccc1CC[C@@H]1CN[C@H](c2nnn[nH]2)CO1)C(c1ccccc1)c1ccccc1` [Example 77, Nα-(methoxycarbonyl)-β-phenyl-N-(2-{2-[(2R,5R)-5-(1H-tetrazol-5-yl)morpholin-2-yl]ethyl}phenyl)-L-phenylalaninamide] had an IC50 of 3.5 nM.

For the compound `COC(=O)N[C@H](C(=O)Nc1ccccc1CC[C@@H]1CN[C@H](c2nnc(Cc3ccccc3)o2)CO1)C(c1ccccc1)c1ccccc1` [Example 78], inhibition was half-maximal at 62 nM (IC50).

Turning to `COC(=O)N[C@H](C(=O)Nc1ccccc1CC[C@@H]1CN[C@H](c2nnc(-c3ccc(F)cc3)o2)CO1)C(c1ccccc1)c1ccccc1` [Example 79], the IC50 is 59 nM.

Regarding `COC(=O)N[C@H](C(=O)Nc1ccccc1CC[C@@H]1CN[C@H](c2nnc(C)o2)CO1)C(c1ccccc1)c1ccccc1` [Example 80], 220 nM corresponded to half-maximal inhibition (IC50).

In turn, `COC(=O)N[C@H](C(=O)Nc1ccccc1CC[C@@H]1CN[C@H](c2nnc(Cc3ccccc3)[nH]2)CO1)C(c1ccccc1)c1ccccc1` [Example 81] returned an IC50 of 2.8 nM.

With `COC(=O)N[C@H](C(=O)Nc1ccccc1CC[C@@H]1CN[C@H](c2nnco2)CO1)C(c1ccccc1)c1ccccc1` [Example 82], the IC50 was determined as 280 nM.

The compound `COC(=O)N[C@H](C(=O)Nc1ccccc1CC[C@@H]1CN[C@H](c2csc(C)n2)CO1)C(c1ccccc1)c1ccccc1` [Example 83] had an IC50 of 89 nM.

`COC(=O)N[C@H](C(=O)Nc1ccccc1CC[C@@H]1CN[C@H](c2csc(Cc3ccccc3)n2)CO1)C(c1ccccc1)c1ccccc1` [Example 84] had an IC50 of 150 nM.

`COC(=O)N[C@H](C(=O)Nc1ccccc1CC[C@@H]1CN[C@H](c2nc3cc(Cl)c(Cl)cc3[nH]2)CO1)C(c1ccccc1)c1ccccc1` [Example 85] displayed an IC50 of 0.4 nM.

`COC(=O)N[C@H](C(=O)Nc1ccccc1CC[C@@H]1CN[C@H](c2ncc[nH]2)CO1)C(c1ccccc1)c1ccccc1` [Example 86] returned an IC50 of 1.8 nM.
